This passage reports TGI results from PubChem BioAssay (NCI).

Assay in all cases: NCI-60 cell line screen, 48 h
The subject of assay [1] is OVCAR-3 ovarian.
The test system of assay [2] is UACC-62 melanoma.
The subject of assay [3] is SK-OV-3 ovarian.
Assay [4] relates to A549 NSCLC.
In assay [5] the test system is U251 CNS.
Assay [6] concerns CAKI-1 renal.
Assay [7] deals with OVCAR-4 ovarian.
Assay [8] concerns MDA-MB-231 breast.
Assay [9] concerns HT29 colon.
For assay [10], the system named is A498 renal.
Assay [11] has as its system HOP-62 NSCLC.
Assay [12] concerns NCI-H460 lung.
Assay [13] deals with TK-10 renal.
Assay [14] has as its system K-562 leukemia.
The test system of assay [15] is SK-MEL-2 melanoma.

Molecules are shown by their SMILES.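 In this assay, cells in 96-well plates receive the compound at five concentrations for 48 hours. Endpoints are linearly interpolated between the surrounding concentrations. TGI: total growth inhibition.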

`CC(C)Cn1cnc2c(Cl)nc3ccccc3c21`: the TGI in assay [1], in assay [2], in assay [3], in assay [4], in [5] and in assay [6] was above 100 µM throughout. The TGI in assay [7], in assay [8], in assay [9], in assay [10], in assay [11] and in [12] was above 100 µM in each case. For the same molecule, the TGI in [13], in assay [14] and in assay [15] was above 100 µM in each case.
On to `Cc1cccc(C)c1N=Nc1ccc(O)c(CN(C)C)c1`, for which the TGI in assay [1] is above 100 µM; in assay [2], 64.6 µM; in assay [3], above 100 µM; in assay [4], above 100 µM; in assay [5], above 100 µM; in assay [6], above 100 µM. In addition, the TGI was above 100 µM in assay [7]; above 100 µM in [8]; 69.6 µM in [9]; above 100 µM in assay [10]; above 100 µM in assay [11]; above 100 µM in assay [12]. The values for the TGI in assay [13], in [14] and in [15] were above 100 µM, above 100 µM and 88.8 µM, respectively.
`CC1(C)CCCCCCCCCC2CC2CCC(C)(C)C1=O` (stereo not given): the TGI in assay [1] is 25.9 µM; in assay [2], above 100 µM; in [3], above 100 µM; in assay [4], 57.5 µM; in assay [5], 33 µM; in assay [6] it was above 100 µM. Moreover, the TGI is above 100 µM in assay [7]; 43.9 µM in assay [8]; 39.6 µM in assay [9]; above 100 µM in [10]; 46 µM in assay [11]; 46 µM in assay [12]. Further, the TGI in assay [13] was 46 µM; in [14], 32.6 µM; in assay [15], 34.5 µM.
Turning to `CCC1CCC2c3c([nH]c4ccc(C)cc34)C3C(=O)N(N(C)C)C(=O)C3C2C1` (stereo not given), the TGI in assay [1] was 2.98 µM; in assay [2], above 100 µM; in [3] it was above 100 µM; in assay [4] it was above 100 µM; in [5], above 100 µM; in [6], above 100 µM. For the same molecule, the TGI in assay [7] is above 100 µM; in assay [8], above 100 µM; in assay [9], above 100 µM; in assay [10] it was above 100 µM; in assay [11], above 100 µM; in assay [12] it was above 68 µM. Further, the TGI is above 100 µM in [13], above 57 µM in assay [14] and above 100 µM in [15].
As for `Cc1cn(C2CCN(CC3COC(C)(C)O3)O2)c(=O)[nH]c1=O` (stereo not given), the TGI in [1], in assay [2], in assay [3], in assay [4], in [5] and in [6] was above 100 µM each time. The TGI in [7], in assay [8], in assay [9], in assay [10], in [11] and in assay [12] was above 100 µM in each case. In addition, the TGI in assay [13], in [14] and in [15] was above 100 µM each time.
Regarding `CCC12C=CCN3CCC4(c5cc(C(c6ccc(OC)cc6)C6Cc7ccccc7N6)c(OC)cc5N(C)C4C(O)(C(=O)OC)C1O)C32` (stereo not given), the TGI in [1] is 94.9 µM; in assay [2], 31.4 µM; in assay [3], above 100 µM; in assay [4], above 100 µM; in assay [5], 35.4 µM; in [6], above 100 µM. Besides, the TGI in assay [7] is above 100 µM; in assay [8] it was 59.2 µM; in assay [9] it was above 100 µM; in [10], 80.3 µM; in assay [11] it was 90.1 µM; in assay [12], 54.5 µM. Moreover, the TGI turned out to be 66.3 µM in assay [13], 41.7 µM in assay [14] and 68.8 µM in assay [15].
With `CCNc1nnc(-c2ccccc2Nc2ccccc2-c2nnc(NCC)s2)s1`, the TGI in assay [1] was above 100 µM; in [2], 35.3 µM; in [3], 31.3 µM; in [4], above 62 µM; in [5], above 55.4 µM; in assay [6] it was 17 µM. The TGI in assay [7] was above 100 µM; in assay [8], 25.7 µM; in assay [9], 60.5 µM; in [10] it was 91 µM; in assay [11], above 100 µM; in assay [12], 31.3 µM. Moreover, the TGI in [13] was above 57.6 µM; in assay [14], above 100 µM; in assay [15] it was 31 µM.
As for `O=[N+]([O-])C(/C=C(\Cl)[N+](=O)[O-])=C(N1CCCCC1)N1CCCCC1`, the TGI was 54.7 µM in [1]; 60.8 µM in assay [2]; above 100 µM in [3]; 54 µM in assay [4]; above 100 µM in assay [5]; above 100 µM in assay [6]. Further, the TGI in assay [7] is above 100 µM; in assay [8] it was above 100 µM; in assay [9] it was above 100 µM; in assay [10], 93.3 µM; in [11], above 100 µM; in [12], above 100 µM. Moreover, the values for the TGI in assay [13], in assay [14] and in assay [15] were above 100 µM, 66.9 µM and above 100 µM, respectively.
